Data published in patent US10004775B2, “Inhibition of hypoxia-inducible factor activity with carica papaya extracts” (The Regents of the University of California, priority 2013, dated 2018).

Tests used:
Saos-2 cells = experiment: MTT assay of cell viability after 24 h treatment in normoxic or hypoxic conditions; format: cell-based, human; conditions: FIG. 1A
Procedure: The leaves were washed with distilled water and left to air-dry at room temperature or in an oven at 40° C. until a constant weight was obtained. Dried leaves were then blended into a powder form, soaked and extracted in methanol at a 1:3 ratio (w/v) for three days at room temperature. Extracts were filtered by Whatman No. 1 filter paper with the aid of a vacuum pump. The residues were re-extracted twice using the same methanolic method. Filtrates were then concentrated by rotary evaporator at a maximum of 40° C. Concentrated extracts were collected in glass vials with push-in caps and dried in an oven at 40° C. until a constant weight was obtained. All of the crude extracts were stored −80° C. […] These concentrations were determined empirically and selected to cover a range of effects, ranging from no effect to significant cytotoxicity. […] After a further 4 h of incubation in 5% CO2 at 37° C., formazan precipitates that formed were dissolved with 100 μl of DMSO and the reaction was read in a microplate reader (Model 550, BioRad, Hercules, Calif.) at 570 nm absorbance and 630 nm as the reference wavelength.

HIF = HIF reporter assay (hypoxia-driven firefly luciferase reporter); format: cell-based, human; conditions: cisplatin 0.1 mM; hypoxic HRE-luc Saos2 cells
Procedure: A human osteosarcoma cell line, Saos-2 stably expressing four copies of the erythropoietin hypoxia response elements (HRE-luc Saos2; […] et al., Malaysian Patent Application #: PI 2012003492), was cultured in DMEM medium (PAA, USA) supplemented with 10% (v/v) fetal bovine serum (FBS; PAA, USA) and 1% (v/v) antibiotic-antimycotic (PAA, USA) in a humidified incubator supplied with ambient oxygen and 5% CO2 at 37° C. An hypoxic gaseous environment was created by incubating cells in a ProOx in vitro chamber (BioSpherix), controlled by ProOx model 110 (BioSpherix). The cells were supplied 0.5% O2, 94.5% N2 and 5% CO2 at 37° C. Cells were co-transfected with a hypoxia-driven firefly luciferase reporter plasmid construct containing four copies of the erythropoietin (EPO) hypoxia response elements (HRE) and a pRL-CMV expressing Renilla luciferase as described previously (Kaluz et al., 2008, […] et al., 2009, […] et al. Malaysian Patent Application No. PI 2012003492). Transfected cells were treated with appropriate concentrations of plant extracts and incubated in either normoxic or hypoxic conditions. After 24 h, firefly and Renilla luciferase signal intensities were measured (Kaluz et al., 2008, […] et al, 2009). Percent HIF inhibition was calculated as a ratio of the difference between untreated and plant extract-treated sample to the untreated sample. […]

SMILES	IC50 in hypoxia compared with normoxia, in words (Saos-2 cells)	percent HIF inhibition (HIF)
CN1C(=O)[C@]2(Cc3cn([C@]45C[C@@]67SS[C@@](CO)(C(=O)N6[C@H]4Nc4ccccc45)N(C)C7=O)c4ccccc34)SS[C@@]1(CO)C(=O)N2C [chetomin]	increased in hypoxia	
N.N.[Cl][Pt][Cl] [cisplatin]	significantly higher than in normoxia	around 60%
